According to patent US20040024024A1, “Aromatic sulfone hydroxamates and their use as protease inhibitors” (priority 2001, published 2004):
Several values for one entry are separate records, joined by “and”; a condition that tells them apart may be missing. Equal values may be shown once. Where a name gives a salt, the structure may show the parent alone.

Columns and labels:
Human recombinant MMP-13 = target: T1, Human recombinant MMP-13 (Homo sapiens, UniProt P45452); experiment: In vitro MMP inhibition, Ki determination (fluorogenic substrate II); format: biochemical
T1 construct: made in house; host or cells: baculovirus / insect cells
Experimental: Several hydroxamates and salts thereof were analyzed in in vitro assays to determine their ability to inhibit the MMP cleavage of peptide substrates. Inhibition (Ki) and IC50 constants were calculated from the assayed hydroxamate-MMP interactions.
Human recombinant MMP-1, MMP-2, MMP-9, MMP-13, and MMP-14 were used in this assay. All enzymes were prepared in Assignee's laboratories following usual laboratory procedures. Protocols for the preparation and use of these enzymes are available in the scientific literature. See, e.g., Enzyme Nomenclature (Academic Press, San Diego, Calif., 1992) (and the citations therein). See also, Frije et al., J. Biol. Chem., 26(24), 16766-73 (1994).
The expressed proenzyme was first purified over a heparin agarose column, and then over a chelating zinc chloride column. The proenzyme was then activated by APMA for use in the assay. Further details on baculovirus expression systems may be found in, for example, Luckow et al., J. Virol., 67, 4566-79 (1993). See also, O'Reilly et al, Baculovirus Expression Vectors: A Laboratory Manual (W. H. Freeman and Co., New York, N.Y., 1992). See also, King et al., The Baculovirus Expression System: A Laboratory Guide (Chapman & Hall, London, England, 1992).
All MMPs were activated using 4-aminophenylmercuric acetate (“APMA”, Sigma Chemical, St. Louis, Mo.) or trypsin. MMP-9 also was activated using human recombinant MMP-3 (purified in Assignee's laboratory following standard cloning and purification techniques).
Two fluorogenic, methoxycoumarin-containing polypeptide substrates were used in the MMP inhibition assays:
MCA-ArgProLeuGlyLeuDpaAlaArgGluArgNH2 (II)
Here, “Dpa” is 3-(2,4-dinitrophenyl)-L-2,3-diaminopropionyl group, and “MCA” is 7-methoxycoumarin-4-yl acetyl. Substrate (I) was purchased from Baychem (Redwood City, Calif.), and substrate II was prepared Assignee's laboratory. Substrate I was used in the IC50 determination assays, while substrate II was used in the Ki determination assays. In the absence of MMP inhibitory activity, either substrate is cleaved at the Gly-Leu peptide bond. This cleavage separates the highly fluorogenic peptide from the 2,4-dinitrophenyl quencher, thus resulting in increase of fluorescent intensity.
The stock solutions of the assayed hydroxamates (or salts thereof) were prepared in 1% dimethyl sulfoxide (DMSO). These stock solutions were diluted in Buffer A (100 mM Tris-HCl, 100 mM NaCl, 10 mM CaCl2, 0.05% polyoxyethylene 23 lauryl ether, pH 7.5) to obtain solutions with different hydroxamate concentrations, i.e., assay solutions with different concentrations of the assayed MMP inhibitory compound. The experiment controls contained the same amount of Buffer A/DMSO as the assayed sample, but contained no hydroxamate (or salt thereof).
The assays from which the Ki determinations were made were performed as follows. The assayed hydroxamate samples were incubated in separate wells of untreated white polystyrene plates (Nunc Nalgene International, Rochester, N.Y.), and analyzed on a Tecan SpectraFlour Plus plate reader. The excitation wavelength was 330 nm, and the emission wavelength—420 nm. All samples (assayed hydroxamates and controls) were incubated in separate plate wells at room temperature for 1 hr in the presence of 4 μM of MMP substrate (II). In the absence of MMP inhibitory activity, substrate II was cleaved at the Gly-Leu bond resulting in an increase of relative fluorescence. Inhibition was observed as a reduced rate of this increase in relative fluorescence. The various hydroxamates were analyzed using a single low enzyme concentration with a single substrate concentration fixed at or below the Km. This protocol is a modification of method by Knight et al., FEBS Lett., 296(3), 263-266 (1992). Apparent inhibitory constants were determined by non-linear regression of reaction velocity as a function of inhibitor and enzyme concentration using Morrison's equation, as described by Kuzmic, Anal. Biochem. 286, 45-50 (2000). […]

Human recombinant MMP-1 = target: T2, Human recombinant MMP-1 (Homo sapiens, UniProt P03956); experiment: In vitro MMP inhibition, IC50 determination (fluorogenic substrate I); format: biochemical
T2 construct: made in house; host or cells: MMP-1-transfected HT-1080 cells (spent media)
T2 sequence (P03956 100-469): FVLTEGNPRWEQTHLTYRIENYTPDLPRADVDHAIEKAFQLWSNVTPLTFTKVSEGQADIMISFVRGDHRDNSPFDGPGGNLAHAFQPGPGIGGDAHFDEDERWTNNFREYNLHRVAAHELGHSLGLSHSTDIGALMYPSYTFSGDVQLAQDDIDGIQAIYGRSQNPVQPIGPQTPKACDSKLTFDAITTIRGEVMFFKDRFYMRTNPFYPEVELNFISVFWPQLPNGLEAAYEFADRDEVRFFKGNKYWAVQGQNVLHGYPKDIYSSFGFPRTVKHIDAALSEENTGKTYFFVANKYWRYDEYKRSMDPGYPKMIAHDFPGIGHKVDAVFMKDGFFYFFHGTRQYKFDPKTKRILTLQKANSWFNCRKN
How it was run: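 APMA- or trypsin-activated enzyme, purified from spent media of transfected HT-1080 cells, incubated at room temperature with 4 μM MCA-Pro-Leu-Gly-Leu-Dpa-Ala-Arg-NH2 and graded inhibitor in Tris buffer pH 7.5 (10 mM CaCl2, 0.05% Brij). Cleavage read by fluorescence (ex 328/em 415 nm); IC50 from fluorescence reduction versus inhibitor concentration.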

[1] = substrate (II) 4 μM, 1 hr room temperature, apparent Ki, values in parenthesis
[2] = substrate (I) 4 μM, room temperature, values not in parenthesis

| Ki (Human recombinant MMP-13; value in parentheses) [nM] | Ki (Human recombinant MMP-13; value in parenthesis) [nM] | Structure (SMILES) | further results |
| --- | --- | --- | --- |
| 57.6 | – | O=C(NO)C1(S(=O)(=O)c2ccc(OCCCc3cccc(-c4csc5ccccc45)c3)cc2)CCOCC1 [Example 631] | – |
| 0.24 | – | O=C(NCCOc1ccc(S(=O)(=O)C2(C(=O)NO)CCOCC2)cc1)c1cc2ccccc2[nH]1 [Example 599] | IC50 (Human recombinant MMP-1; value outside parentheses): > 10000 nM |
| – | – | O=C(NO)C1(S(=O)(=O)c2ccc(OCCCc3nc(-c4ccc(OC(F)(F)F)cc4)no3)cc2)CCOCC1 [Example 31, tetrahydro-N-hydroxy-4-[[4-[3-[3[4-(trifluoromethoxy)phenyl]-1,2,4-oxadiazol-5-yl]propoxy]phenyl]sulfonyl]-2H-pyran-4-carboxamide] | Ki (Human recombinant MMP-13; [1]): 1.5 nM; IC50 (Human recombinant MMP-1; [2]): > 10000 nM |
| – | 12 | O=C(NO)C1(S(=O)(=O)c2ccc(OCCCc3cccc(-c4ccccc4Cl)c3)cc2)CCOCC1 [Example 162] | – |
| – | 20.3 | O=C(NO)C1(S(=O)(=O)c2ccc(OCCCc3cccc(-c4cccc(F)c4)c3)cc2)CCOCC1 [Example 161] | IC50 (Human recombinant MMP-1; value outside parenthesis): > 10000 nM |
| 12.5 | – | Cc1ccc(-c2cccc(CCCOc3ccc(S(=O)(=O)C4(C(=O)NO)CCOCC4)cc3)c2)s1 [Example 639] | – |
| – | 0.895 | COCCN1CCC(C(=O)NO)(S(=O)(=O)c2ccc(OCCCc3cccc(-c4ccc(F)cc4)c3)cc2)CC1 [Example 140] | IC50 (Human recombinant MMP-1; value outside parenthesis): > 10000 nM |
| 43.6 | – | O=C(NO)C1(S(=O)(=O)c2ccc(OCCCc3cccc(-c4ccc(C(F)(F)F)cc4)c3)cc2)CCOCC1 [Example 625] | – |
| – | 144 | Cc1ccc(-c2cccc(CCCOc3ccc(S(=O)(=O)C4(C(=O)NO)CCOCC4)cc3)c2)cc1C [Example 165] | – |
| – | 1.58 | CCc1ccccc1-c1noc(CCCOc2ccc(S(=O)(=O)C3(C(=O)NO)CCN(CCOC)CC3)cc2)n1 [Example 155] | IC50 (Human recombinant MMP-1; value outside parenthesis): > 10000 nM |
| – | – | O=C(NO)C1(S(=O)(=O)c2ccc(OCCc3cccc(-c4ccccn4)c3)cc2)CCOCC1 [Example 40] | Ki (Human recombinant MMP-13; [1]): 0.58 nM; IC50 (Human recombinant MMP-1; [2]): > 10000 nM |
| – | – | CCN1CCC(C(=O)NO)(S(=O)(=O)c2ccc(OCCCc3cccc(-c4ccccc4)c3)cc2)CC1 [Example 46] | Ki (Human recombinant MMP-13; [1]): 2.29 nM; IC50 (Human recombinant MMP-1; [2]): > 10000 nM |
| – | – | O=C(NO)C1(S(=O)(=O)c2ccc(OCCCn3nnc(-c4ccc(OC(F)(F)F)cc4)n3)cc2)CCN(C2CC2)CC1 [Example 49] | Ki (Human recombinant MMP-13; [1]): 0.439 nM; IC50 (Human recombinant MMP-1; [2]): > 10000 nM |
| – | – | CC(C)c1ccc(-c2cccc(CCCOc3ccc(S(=O)(=O)C4(C(=O)NO)CCOCC4)cc3)c2)cc1 [Example 160] | IC50 (Human recombinant MMP-1; value outside parenthesis): > 10000 nM |
| 6.02 | – | O=C(NO)C1(S(=O)(=O)c2ccc(OCCCc3cccc(-c4ccc(F)cc4F)c3)cc2)CCOCC1 [Example 630] | IC50 (Human recombinant MMP-1; value outside parentheses): > 10000 nM |
| – | 1.49 | CN(C(=O)CCCOc1ccc(S(=O)(=O)C2(C(=O)NO)CCOCC2)cc1)c1ccc(OC(F)(F)F)cc1 [Example 249] | IC50 (Human recombinant MMP-1; value outside parenthesis): > 10000 nM |
| 0.244 | – | O=C(NO)C1(S(=O)(=O)c2ccc(OCCCc3cncc(-c4ccccc4)c3)cc2)CCOCC1 [Example 524] | IC50 (Human recombinant MMP-1; value outside parentheses): > 10000 nM |
| 1.42 | – | O=C(NO)C1(S(=O)(=O)c2ccc(OCCCc3cc(-c4ccc(F)cc4F)cs3)cc2)CCOCC1 [Example 587] | IC50 (Human recombinant MMP-1; value outside parentheses): > 10000 nM |
| 0.142 | – | O=C(CCCOc1ccc(S(=O)(=O)C2(C(=O)NO)CCOCC2)cc1)Nc1cccc(I)c1 [Example 570] | – |
| – | 4.01 | O=C(NO)C1(S(=O)(=O)c2ccc(OCCOc3cccc(-c4ccccc4)c3)cc2)CCOCC1 [Example 157] | IC50 (Human recombinant MMP-1; value outside parenthesis): > 10000 nM |
| – | 0.547 | Cc1cc(NC(=O)CCCOc2ccc(S(=O)(=O)C3(C(=O)NO)CCOCC3)cc2)ccc1OC(C)C [Example 290] | IC50 (Human recombinant MMP-1; value outside parenthesis): > 10000 nM |

| Ki (Human recombinant MMP-13; value in parentheses) [nM] | Ki (Human recombinant MMP-13; value in parenthesis) [nM] | Structure (SMILES) | further results |
| --- | --- | --- | --- |
| – | 1.18 | O=C(NO)C1(S(=O)(=O)c2ccc(OCCCc3cccc(-c4ccncc4)c3)cc2)CCOCC1 [Example 149] | – |
| 3.21 | – | O=C(NO)C1(S(=O)(=O)c2ccc(OCCCc3cccc(-c4ccccc4O)c3)cc2)CCOCC1 [Example 636] | – |
| – | – | O=C(NO)C1(S(=O)(=O)c2ccc(OCCCc3cccc(-c4ccc(F)cc4)c3)cc2)CCOCC1 [Example 39] | Ki (Human recombinant MMP-13; [1]): 3.04 nM |
| – | – | COCCN1CCC(C(=O)NO)(S(=O)(=O)c2ccc(OCCCc3cc(-c4ccc(F)cc4F)cs3)cc2)CC1 [Example 47, 4-[(4-{3-[4-(2,4-difluorophenyl)thien-2-l]propoxy}phenyl)sulfonyl]-N-hydroxy-1-(2-methoxyethyl)piperidine-4-carboxamide Hydrochloride] | Ki (Human recombinant MMP-13; [1]): 0.304 nM and 0.423 nM |
| – | 1.72 | O=C(NO)C1(S(=O)(=O)c2ccc(OCCCc3cccc(-c4ccccn4)c3)cc2)CCOCC1 [Example 148] | – |
| – | 1.34 | O=C1Nc2ccc(-c3noc(CCCOc4ccc(S(=O)(=O)C5(C(=O)NO)CCN(C6CC6)CC5)cc4)n3)cc21 [Example 142] | – |
| – | 6.85 | Cc1ccccc1-c1cccc(CCCOc2ccc(S(=O)(=O)C3(C(=O)NO)CCOCC3)cc2)c1 [Example 164] | – |
| 26.2 | – | C=Cc1ccc(-c2cccc(CCCOc3ccc(S(=O)(=O)C4(C(=O)NO)CCOCC4)cc3)c2)cc1 [Example 635] | – |
| 1.72 | – | O=C(NO)C1(S(=O)(=O)c2ccc(OCCCc3nc(-c4cccnc4)no3)cc2)CCOCC1 [Example 578] | – |
| – | – | CC(C)C(=O)c1cccc(CCCOc2ccc(S(=O)(=O)C3(C(=O)NO)CCOCC3)cc2)c1 [Example 95] | IC50 (Human recombinant MMP-1; value outside parenthesis): > 10000 nM |
| 89.1 | – | O=C(NO)C1(S(=O)(=O)c2ccc(OCCCc3cccc(-c4ccc5ccccc5c4)c3)cc2)CCOCC1 [Example 629] | – |
| 1.32 | – | O=C(NO)C1(S(=O)(=O)c2ccc(OCCCc3cccc(-n4ccnc4)c3)cc2)CCOCC1 [Example 574] | – |
| 68.1 | – | O=C(NO)C1(S(=O)(=O)c2ccc(OCCCc3cccc(-c4cccc5ccccc45)c3)cc2)CCOCC1 [Example 638] | – |
| 0.7 | – | O=C(COc1ccc(S(=O)(=O)C2(C(=O)NO)CCOCC2)cc1)c1cccc(-c2ccccc2)c1 [Example 563] | – |
| 19.4 | – | O=C(NO)C1(S(=O)(=O)c2ccc(OCCCc3cccc(-c4coc5ccccc45)c3)cc2)CCOCC1 [Example 634] | – |
| 40.9 | – | O=C(NO)C1(S(=O)(=O)c2ccc(OCCCc3cccc(-c4ccc5c(c4)OCCO5)c3)cc2)CCOCC1 [Example 627] | – |
| 0.944 | – | O=C(NO)C1(S(=O)(=O)c2ccc(OCCCc3nc(-c4ccccc4)no3)cc2)CCOCC1 [Example 584] | – |
| – | 5.57 | O=C(NO)C1(S(=O)(=O)c2ccc(OCCCc3cccc(-c4ccco4)c3)cc2)CCOCC1 [Example 97] | – |
| – | 23.9 | O=C(NO)C1(S(=O)(=O)c2ccc(OCCCc3cccc(-c4ccc(OC(F)(F)F)cc4)c3)cc2)CCOCC1 [Example 147] | – |
| 92.4 | – | O=C(NO)C1(S(=O)(=O)c2ccc(OCCCc3cccc(-c4cc5ccccc5s4)c3)cc2)CCOCC1 [Example 633] | – |
